From ChEMBL document CHEMBL5608164, “Targeting kelch-like (KLHL) proteins: achievements, challenges and perspectives” (Eur J Med Chem, 2024) come the findings set out here.

Starred links: 1 amine or outer side, 2 acyl side, 3 side chain; linkers in the order of their positions; H or OH if unused. Positions of bridges follow the written chain, without caps; N, C: chain ends. Residues, ends and D or L forms follow the SMILES beside them. mXylylene = c1cc(C[*:1])cc(C[*:2])c1

A short description of test [1]: Inhibition of human Kelch-like protein extracted from Escherichia coli.
A further test deals with T1, Kelch-like protein 20 (Homo sapiens, UniProt Q9Y2M5).
T1 sequence (Q9Y2M5 whole entry): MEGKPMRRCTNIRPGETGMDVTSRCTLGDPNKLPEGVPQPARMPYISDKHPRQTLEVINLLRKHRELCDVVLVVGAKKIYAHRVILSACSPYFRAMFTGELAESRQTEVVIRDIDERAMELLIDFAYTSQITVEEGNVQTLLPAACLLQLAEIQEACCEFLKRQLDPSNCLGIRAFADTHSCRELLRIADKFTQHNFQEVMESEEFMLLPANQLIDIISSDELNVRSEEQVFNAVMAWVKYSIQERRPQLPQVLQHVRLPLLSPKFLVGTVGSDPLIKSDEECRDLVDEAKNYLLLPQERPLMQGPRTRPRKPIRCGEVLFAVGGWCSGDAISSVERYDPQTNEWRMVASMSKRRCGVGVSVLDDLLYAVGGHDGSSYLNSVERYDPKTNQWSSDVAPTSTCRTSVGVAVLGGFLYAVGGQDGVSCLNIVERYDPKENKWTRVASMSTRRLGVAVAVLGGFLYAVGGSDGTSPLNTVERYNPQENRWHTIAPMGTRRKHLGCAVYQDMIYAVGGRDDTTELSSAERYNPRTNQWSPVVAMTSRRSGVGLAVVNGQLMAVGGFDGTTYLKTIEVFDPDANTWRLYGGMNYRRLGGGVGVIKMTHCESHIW
Description: Binding affinity to KLHL20 (unknown origin) assessed as dissociation constant by fluorescence polarization assay.

In a further test the target is Keap1/Nrf2 (Homo sapiens, UniProt Q14145). Description: Inhibition of Keap1-Nrf2 protein-protein interaction (unknown origin) by fluorescence polarization assay. On the technique in general: In fluorescence polarisation assays a small probe gives low polarisation when free and higher when bound to something large.
For another test, the target named is T2, Kelch-like protein 3 (Homo sapiens, UniProt Q9UH77).
T2 sequence (Q9UH77 whole entry): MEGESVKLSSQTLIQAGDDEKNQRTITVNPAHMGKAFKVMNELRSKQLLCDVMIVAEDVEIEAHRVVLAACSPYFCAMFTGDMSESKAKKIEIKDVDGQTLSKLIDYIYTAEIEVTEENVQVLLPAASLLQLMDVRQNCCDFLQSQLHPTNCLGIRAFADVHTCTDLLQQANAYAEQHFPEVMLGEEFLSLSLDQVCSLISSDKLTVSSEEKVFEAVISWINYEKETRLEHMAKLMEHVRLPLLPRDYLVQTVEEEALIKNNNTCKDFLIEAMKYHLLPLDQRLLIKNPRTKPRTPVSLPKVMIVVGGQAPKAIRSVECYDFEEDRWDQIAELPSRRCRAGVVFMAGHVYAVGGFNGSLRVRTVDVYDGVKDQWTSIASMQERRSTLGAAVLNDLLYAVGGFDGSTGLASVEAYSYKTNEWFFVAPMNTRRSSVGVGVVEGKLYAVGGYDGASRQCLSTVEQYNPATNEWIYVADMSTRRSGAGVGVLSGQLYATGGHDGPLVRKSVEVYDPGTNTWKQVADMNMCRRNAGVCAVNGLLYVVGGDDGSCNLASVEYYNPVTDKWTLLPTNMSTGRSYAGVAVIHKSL
Kind of test: Binding affinity to KLHL3 (unknown origin) assessed as dissociation constant by fluorescence polarization assay.

Test [2] has as its target T3, Kelch-like protein 12 (Homo sapiens, UniProt Q53G59).
T3 sequence (Q53G59 whole entry): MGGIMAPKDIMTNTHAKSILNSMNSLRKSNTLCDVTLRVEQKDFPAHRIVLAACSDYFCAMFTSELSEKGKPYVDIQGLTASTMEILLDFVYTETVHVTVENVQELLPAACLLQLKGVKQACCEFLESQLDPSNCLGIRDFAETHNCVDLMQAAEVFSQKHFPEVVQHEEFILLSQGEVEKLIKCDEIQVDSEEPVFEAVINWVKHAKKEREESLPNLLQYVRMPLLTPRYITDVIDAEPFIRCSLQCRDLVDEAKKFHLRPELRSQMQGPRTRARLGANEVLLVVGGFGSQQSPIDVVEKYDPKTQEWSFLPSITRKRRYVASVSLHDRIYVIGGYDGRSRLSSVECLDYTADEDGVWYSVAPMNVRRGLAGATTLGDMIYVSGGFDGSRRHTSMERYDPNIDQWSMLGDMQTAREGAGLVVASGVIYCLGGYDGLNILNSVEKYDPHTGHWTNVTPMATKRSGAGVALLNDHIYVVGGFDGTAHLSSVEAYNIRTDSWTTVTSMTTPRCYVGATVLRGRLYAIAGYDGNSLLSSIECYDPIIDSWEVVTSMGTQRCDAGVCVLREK
Kind of test: Binding affinity to KLHL12 (unknown origin) extracted from Escherichia coli BL21 Gold (DE3) assessed as dissociation constant by fluorescence polarization assay.

The target of test [3] is T3, Kelch-like protein 12. Description: Binding affinity to KLHL12 (unknown origin) assessed as inhibition constant.

The IC50 is the concentration needed to halve the response being measured. By Kd is commonly meant the constant that tells how readily two partners part at equilibrium. What is called Ki is a dissociation constant, usually derived from enzyme kinetics or from competition with a known ligand.

Chain of Keap1/Nrf2 (Q16236 whole entry): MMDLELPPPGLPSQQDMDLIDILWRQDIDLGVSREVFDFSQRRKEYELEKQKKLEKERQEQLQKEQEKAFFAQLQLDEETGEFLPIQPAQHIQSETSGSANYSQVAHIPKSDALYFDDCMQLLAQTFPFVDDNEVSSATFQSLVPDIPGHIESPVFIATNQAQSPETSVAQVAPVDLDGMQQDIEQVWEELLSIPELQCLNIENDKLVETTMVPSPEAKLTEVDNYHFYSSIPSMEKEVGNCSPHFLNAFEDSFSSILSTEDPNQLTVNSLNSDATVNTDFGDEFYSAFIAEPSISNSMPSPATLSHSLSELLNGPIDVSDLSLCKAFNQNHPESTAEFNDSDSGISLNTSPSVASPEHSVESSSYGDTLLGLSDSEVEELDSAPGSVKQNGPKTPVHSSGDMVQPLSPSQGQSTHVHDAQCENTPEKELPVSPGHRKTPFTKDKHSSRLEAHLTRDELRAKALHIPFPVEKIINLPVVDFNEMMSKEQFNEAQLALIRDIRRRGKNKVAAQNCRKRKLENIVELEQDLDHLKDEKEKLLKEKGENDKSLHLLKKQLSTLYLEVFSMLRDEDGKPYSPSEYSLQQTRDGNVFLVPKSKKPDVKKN
Chain of Keap1/Nrf2 (Q14145 whole entry): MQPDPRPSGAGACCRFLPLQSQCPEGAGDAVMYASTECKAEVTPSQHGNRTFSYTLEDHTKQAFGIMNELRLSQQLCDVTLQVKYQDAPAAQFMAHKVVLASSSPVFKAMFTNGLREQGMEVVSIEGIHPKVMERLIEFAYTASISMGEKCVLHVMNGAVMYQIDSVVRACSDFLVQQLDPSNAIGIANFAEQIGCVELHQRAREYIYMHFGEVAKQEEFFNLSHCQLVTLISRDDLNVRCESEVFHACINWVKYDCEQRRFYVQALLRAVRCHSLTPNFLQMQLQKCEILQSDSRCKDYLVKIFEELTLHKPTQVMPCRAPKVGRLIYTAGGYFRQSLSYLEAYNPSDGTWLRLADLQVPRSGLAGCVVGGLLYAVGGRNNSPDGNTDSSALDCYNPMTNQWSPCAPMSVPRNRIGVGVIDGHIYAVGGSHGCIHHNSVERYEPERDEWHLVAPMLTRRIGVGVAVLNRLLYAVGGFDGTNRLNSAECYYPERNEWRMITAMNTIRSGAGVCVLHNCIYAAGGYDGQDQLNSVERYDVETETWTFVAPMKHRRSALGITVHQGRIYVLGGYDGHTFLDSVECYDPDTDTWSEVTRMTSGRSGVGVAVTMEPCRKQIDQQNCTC

As for `CC(C)C[C@H](NC(=O)[C@H](Cc1ccccc1)NC(=O)[C@H](CCC(=O)O)NC(=O)CNC(=O)[C@@H](NC(=O)[C@H](CCC(=O)O)NC(=O)[C@H](CCC(=O)O)NC(=O)[C@H](CC(=O)O)NC(=O)[C@@H](N)CC(C)C)[C@@H](C)O)C(=O)O`, the midpoint of inhibition in test [1], the IC50, lay at 0.02 µM. Turning to `CC(C)C[C@@H]1NC(=O)[C@H](CC(=O)O)NC(=O)[C@@H]2CCCN2C(=O)[C@@H](N)CSCc2cccc(c2)CSC[C@@H](C(N)=O)NC1=O` (H-CPDLC-NH2; linker 1-5 via mXylylene), the Kd on Kelch-like protein 20 turned out to be 0.6 µM. On Keap1/Nrf2, Ac-DPSTGEL-OH yielded an IC50 of 34.4 µM. Regarding H-EPEEPEADQHQ-OH, on Kelch-like protein 3, the dissociation constant Kd was 0.69 µM. As to H-PGAPPGRDLASVP-OH, on Kelch-like protein 12 [2], the Kd worked out at 15 µM. For the same compound, the Ki at Kelch-like protein 12 [3] is 21 µM.
